# Laboratory results published in ChEMBL document CHEMBL1201862, “PubChem BioAssay data set” (2004).
#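 Tested at 5 concentrations; 48 h exposure; 96-well plates; endpoints linearly interpolated, else capped at highest concentration. GI50 = concentration required for 50% inhibition of growth.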 The source made the active and inactive calls. Cut-off read from the data, not from the text of the source: active = GI50 up to about 1.1 µM and inactive = higher.
# Key:
# Assay in all cases: NCI anticancer screen, dose series, 48 h
# SNB-19 = system: SNB-19
# OVCAR-8 = system: OVCAR-8
# HL-60 = system: HL-60
# SK-OV-3 = system: SK-OV-3
# SNB-75 = system: SNB-75
# M14 = system: M14
# IGROV-1 = system: IGROV-1
# CCRF-CEM = system: CCRF-CEM
# A549 = system: A549
# HOP-62 = system: HOP-62
# UO-31 = system: UO-31
# UACC-257 = system: UACC-257
# SF-295 = system: SF-295
# KM12 = system: KM12
# LOX IMVI = system: LOX IMVI
# NCI-H460 = system: NCI-H460
# SK-MEL-5 = system: SK-MEL-5
# TK-10 = system: TK-10
# SW-620 = system: SW-620
# MOLT-4 = system: MOLT-4
# HT-29 = system: HT-29
# M19-MEL = system: M19-MEL
# DLD-1 = system: DLD-1
# DMS-114 = system: DMS-114
# CAKI-1 = system: CAKI-1
# LXFL 529 = system: LXFL 529
# SR = system: SR
# HCT-116 = system: HCT-116
# OVCAR-3 = system: OVCAR-3
# ACHN = system: ACHN
# SK-MEL-28 = system: SK-MEL-28
# HCT-15 = system: HCT-15
# NCI-H522 = system: NCI-H522
# HOP-18 = system: HOP-18
# SN12C = system: SN12C
# NCI-H226 = system: NCI-H226
# SF-268 = system: SF-268
# EKVX = system: EKVX
# NCI-H23 = system: NCI-H23
# RXF 393 = system: RXF 393
# OVCAR-5 = system: OVCAR-5
# COLO 205 = system: COLO 205
# KM-20L2 = system: KM-20L2
# XF498 = system: XF498
# DMS-273 = system: DMS-273
# RPMI-8226 = system: RPMI-8226
# SF-539 = system: SF-539
# OVCAR-4 = system: OVCAR-4
# K562 = system: K562
# A498 = system: A498
# 786-0 = system: 786-0
# UACC-62 = system: UACC-62
# U-251 = system: U-251
# SK-MEL-2 = system: SK-MEL-2
# Malme-3M = system: Malme-3M
# HCC 2998 = system: HCC 2998
# HOP-92 = system: HOP-92
compound,measurement,setting,value
O=C1c2ccccc2C(=O)c2sc(Nc3cccc(Cl)c3)nc21,GI50,SNB-19,2.07 µM (inactive)
same,GI50,OVCAR-8,1.6 µM (inactive)
same,GI50,HL-60,0.172 µM (active)
same,GI50,SK-OV-3,8.11 µM (inactive)
same,GI50,SNB-75,1.82 µM (inactive)
same,GI50,M14,1.82 µM (inactive)
same,GI50,IGROV-1,2.07 µM (inactive)
same,GI50,CCRF-CEM,1.36 µM (inactive)
same,GI50,A549,2.21 µM (inactive)
same,GI50,HOP-62,1.82 µM (inactive)
same,GI50,UO-31,2.3 µM (inactive)
same,GI50,UACC-257,1.52 µM (inactive)
same,GI50,SF-295,1.62 µM (inactive)
same,GI50,KM12,2.03 µM (inactive)
same,GI50,LOX IMVI,1.27 µM (inactive)
same,GI50,NCI-H460,2.07 µM (inactive)
same,GI50,SK-MEL-5,1.56 µM (inactive)
same,GI50,TK-10,2.88 µM (inactive)
same,GI50,SW-620,0.802 µM (active)
same,GI50,MOLT-4,0.492 µM (active)
same,GI50,HT-29,3.34 µM (inactive)
same,GI50,M19-MEL,0.322 µM (active)
same,GI50,DLD-1,1.94 µM (inactive)
same,GI50,DMS-114,1.36 µM (inactive)
same,GI50,CAKI-1,2.04 µM (inactive)
same,GI50,LXFL 529,1.48 µM (inactive)
same,GI50,SR,2.34 µM (inactive)
same,GI50,HCT-116,1.82 µM (inactive)
same,GI50,OVCAR-3,1.12 µM (active)
same,GI50,ACHN,1.61 µM (inactive)
same,GI50,SK-MEL-28,1.81 µM (inactive)
same,GI50,HCT-15,1.88 µM
same,GI50,NCI-H522,1.45 µM (inactive)
same,GI50,HOP-18,1.63 µM (inactive)
same,GI50,SN12C,1.51 µM (inactive)
same,GI50,NCI-H226,3.96 µM (inactive)
same,GI50,SF-268,2.01 µM (inactive)
same,GI50,EKVX,2.38 µM (inactive)
same,GI50,NCI-H23,1.49 µM (inactive)
same,GI50,RXF 393,1.45 µM (inactive)
same,GI50,OVCAR-5,2.22 µM (inactive)
same,GI50,COLO 205,5.38 µM (inactive)
same,GI50,KM-20L2,7.45 µM (inactive)
same,GI50,XF498,1.73 µM (inactive)
same,GI50,DMS-273,1.87 µM (inactive)
same,GI50,RPMI-8226,0.966 µM (active)
same,GI50,SF-539,1.93 µM (inactive)
same,GI50,OVCAR-4,1.45 µM (inactive)
same,GI50,K562,1.57 µM (inactive)
same,GI50,A498,2.07 µM (inactive)
same,GI50,786-0,1.56 µM (inactive)
same,GI50,UACC-62,1.73 µM (inactive)
same,GI50,U-251,1.31 µM (inactive)
same,GI50,SK-MEL-2,1.79 µM (inactive)
same,GI50,Malme-3M,1.52 µM (inactive)
same,GI50,HCC 2998,2.75 µM (inactive)
O=C(O)CN(c1ccccc1)S(=O)(=O)c1cccc([N+](=O)[O-])c1,GI50,SNB-19,> 100 µM (inactive)
same,GI50,OVCAR-8,> 100 µM (inactive)
same,GI50,HL-60,> 100 µM (inactive)
same,GI50,SK-OV-3,> 100 µM (inactive)
same,GI50,SNB-75,> 100 µM (inactive)
same,GI50,M14,> 100 µM (inactive)
same,GI50,IGROV-1,> 100 µM (inactive)
same,GI50,CCRF-CEM,> 100 µM (inactive)
same,GI50,A549,> 100 µM (inactive)
same,GI50,UO-31,> 100 µM (inactive)
same,GI50,UACC-257,> 100 µM (inactive)
same,GI50,SF-295,> 100 µM (inactive)
same,GI50,KM12,> 100 µM (inactive)
same,GI50,LOX IMVI,> 100 µM (inactive)
same,GI50,NCI-H460,> 100 µM (inactive)
same,GI50,SK-MEL-5,> 100 µM (inactive)
same,GI50,TK-10,> 100 µM (inactive)
same,GI50,SW-620,> 100 µM (inactive)
same,GI50,MOLT-4,> 100 µM (inactive)
same,GI50,HT-29,> 100 µM (inactive)
same,GI50,M19-MEL,> 100 µM (inactive)
same,GI50,DLD-1,> 100 µM (inactive)
same,GI50,CAKI-1,> 100 µM (inactive)
same,GI50,LXFL 529,> 100 µM (inactive)
same,GI50,OVCAR-3,> 100 µM (inactive)
same,GI50,ACHN,> 100 µM (inactive)
same,GI50,SK-MEL-28,> 100 µM (inactive)
same,GI50,HCT-15,> 100 µM
same,GI50,NCI-H522,> 100 µM (inactive)
same,GI50,HOP-92,> 100 µM (inactive)
same,GI50,HOP-18,> 100 µM (inactive)
same,GI50,SN12C,> 100 µM (inactive)
same,GI50,NCI-H226,> 100 µM (inactive)
same,GI50,SF-268,> 100 µM (inactive)
same,GI50,EKVX,> 100 µM (inactive)
same,GI50,NCI-H23,> 100 µM (inactive)
same,GI50,RXF 393,> 100 µM (inactive)
same,GI50,OVCAR-5,> 100 µM (inactive)
same,GI50,COLO 205,> 100 µM (inactive)
same,GI50,KM-20L2,> 100 µM (inactive)
same,GI50,XF498,> 100 µM (inactive)
same,GI50,DMS-273,> 100 µM (inactive)
same,GI50,RPMI-8226,> 100 µM (inactive)
same,GI50,SF-539,> 100 µM (inactive)
same,GI50,OVCAR-4,> 100 µM (inactive)
same,GI50,K562,> 100 µM (inactive)
same,GI50,A498,> 100 µM (inactive)
same,GI50,786-0,> 100 µM (inactive)
same,GI50,UACC-62,> 100 µM (inactive)
same,GI50,U-251,> 100 µM (inactive)
same,GI50,SK-MEL-2,> 100 µM (inactive)
same,GI50,Malme-3M,> 100 µM (inactive)
